Reference: US9724276B2, “Dental materials and method of manufacture” (Valspar Sourcing, Inc., priority 2012, dated 2017)

system: MCF-7, clone WS8, cells; experiment: MCF-7 cell proliferation assay of estrogenic activity; assay type: cell-based, human; conditions: logarithmic (base 10) Relative Proliferative Effect relative to 17-beta estradiol, MCF-7 assay; values 'expected or measured'
From the text: The MCF-7 assay is a useful test for assessing whether a polyhydric phenol compound is appreciably non-estrogenic. The MCF-7 assay uses MCF-7, clone WS8, cells to measure whether and to what extent a substance induces cell proliferation via estrogen receptor (ER)-mediated pathways. The method is described in “Test Method Nomination: MCF-7 Cell Proliferation Assay of Estrogenic Activity” submitted for validation by CertiChem, Inc. to the National Toxicology Program Interagency Center for the Evaluation of Alternative Toxicological Methods (NICEATM) on Jan. 19, 2006 (available online at iccvam.niehs.nih gov/methods/endocrine/endodocs/SubmDoc.pdf).
A brief summary of the method of the aforementioned MCF-7 assay is provided below. MCF-7, clone WS8, cells are maintained at 37° C. in RMPI (or Roswell Park Memorial Institute medium) containing Phenol Red (e.g., GIBCO Catalog Number 11875119) and supplemented with the indicated additives for routine culture. An aliquot of cells maintained at 37° C. are grown for two days in phenol-free media containing 5% charcoal stripped fetal bovine serum in a 25 cm^2 tissue culture flask. Using a robotic dispenser such as an EPMOTION™ 5070 unit from Eppendorf AG, MCF-7 cells are seeded at 400 cells per well in 0.2 ml of hormone-free culture medium in Corning 96-well plates. The cells are adapted for 3 days in the hormone-free culture medium prior to adding the chemical to be assayed for estrogenic activity. The media containing the test chemical is replaced daily for 6 days. At the end of a 7 day exposure to the test chemical, the media is removed, the wells are washed once with 0.2 ml of HBSS (Hanks' Balanced Salt Solution), and then assayed to quantify amounts of DNA per well using a micro-plate modification of the Burton diphenylamine (DPA) assay, which is used to calculate the level of cell proliferation. […]

Structure (SMILES) | Log RPE
Oc1ccc(Cc2ccc(O)cc2)cc1 [Bisphenol F] | −2
O=S(=O)(c1ccc(O)cc1)c1ccc(O)cc1 [Bisphenol S] | −2
C[C@]12CC[C@@H]3c4ccc(O)cc4CC[C@H]3[C@@H]1CC[C@@H]2O [17β-estradiol] | 2.00

target: T1, human estrogen receptor (Homo sapiens, UniProt P03372); experiment: suitable in vitro assay of estrogenic activity whose results correlate with the MCF-7 assay (outside toxicology laboratory); conditions: in vitro assay correlated to MCF-7 assay through common reference compounds
T1 sequence (P03372 1-595): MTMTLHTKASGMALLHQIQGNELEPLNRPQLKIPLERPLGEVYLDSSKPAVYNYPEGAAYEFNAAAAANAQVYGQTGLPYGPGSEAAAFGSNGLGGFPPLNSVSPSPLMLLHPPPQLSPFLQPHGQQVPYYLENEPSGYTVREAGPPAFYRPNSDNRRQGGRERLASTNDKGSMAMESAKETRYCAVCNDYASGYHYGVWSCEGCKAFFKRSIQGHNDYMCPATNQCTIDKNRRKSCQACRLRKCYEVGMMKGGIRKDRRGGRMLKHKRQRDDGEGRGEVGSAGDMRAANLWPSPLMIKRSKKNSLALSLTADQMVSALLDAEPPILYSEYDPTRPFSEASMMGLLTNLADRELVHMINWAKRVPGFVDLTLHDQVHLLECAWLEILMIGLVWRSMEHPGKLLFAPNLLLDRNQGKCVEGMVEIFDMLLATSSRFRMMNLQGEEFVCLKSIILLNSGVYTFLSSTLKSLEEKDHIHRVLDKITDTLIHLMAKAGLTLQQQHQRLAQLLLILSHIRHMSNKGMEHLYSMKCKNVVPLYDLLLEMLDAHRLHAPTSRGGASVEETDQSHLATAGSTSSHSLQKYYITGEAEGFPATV
Experimental: The polyhydric phenols used to make the diglycidyl ethers of each of Runs I-III were assayed for estrogenic activity by an outside toxicology laboratory using a suitable assay whose results are known to be directly correlatable to the MCF-7 assay based on common reference compounds.

Structure (SMILES) | estrogenic activity
CCCC(c1cc(C(C)(C)C)c(O)cc1C)c1cc(C(C)(C)C)c(O)cc1C [Structure 7, 4,4′-butylidenebis(2-t-butyl-5-methylphenol)] | do not exhibit appreciable estrogenic activity
Cc1cc(Cc2cc(C)cc(C(C)(C)C)c2O)c(O)c(C(C)(C)C)c1 [Structure 9] | do not exhibit appreciable estrogenic activity
CC(C)(C)c1cc(O)c(C(C)(C)C)cc1O [Structure 12, 2,5-di-t-butylhydroquinone] | do not exhibit appreciable estrogenic activity
CC(C)(C)c1cc(Cc2cc(C(C)(C)C)c(O)c(C(C)(C)C)c2)cc(C(C)(C)C)c1O [Structure 8, 4,4′-methylenebis(2,6-di-t-butylphenol)] | do not exhibit appreciable estrogenic activity
Cc1cc(Cc2cc(C)c(O)c(C)c2)cc(C)c1O [Structure 6, 4,4′-methylenebis(2,6-dimethylphenol)] | do not exhibit appreciable estrogenic activity

system: not listed separately; experiment: genotoxicity assays (e.g., Ames II assay); conditions: not given

Structure (SMILES) | genotoxicity
CC(C)(C)c1cc(Cc2cc(C(C)(C)C)c(OCC3CO3)c(C(C)(C)C)c2)cc(C(C)(C)C)c1OCC1CO1 (stereo not drawn) [Diglycidyl ether of 4,4′-methylenebis(2,6-di-tert-butylphenol)] | non-genotoxic
